Tests used:
Assay type in all cases: cell-based, human
dendritic cells = experiment: DC markers in co-cultures of T-cells and DCs (FACS)
Protocol: T-cells were isolated from 10 mL of whole blood which was centrifuged first at 1200 rpm (300×g) for 10 min (without brakes). The top layer containing platelets was removed carefully without disrupting the white blood cell layer. Then RosetteSep™ Human T-Cell Enrichment Cocktail (Pan T-cells from StemCell technologies, Vancouver, BC) was added to the remaining blood (500 μL/10 mL blood). This was incubated for 20 min and then 1 mL FBS was added along with 10 mL PBS. Histopaque (20-25 mL) placed in a 50 mL Falcon the prepared blood/PBS solution was overlaid very slowly. This was centrifuged with no brake (25° C., 1500 rpm, 25 min). The top layer was removed and the T-cells in the buffy coat layer were then removed to a new 50 mL tube. The T-cells were washed with PBS, resuspended in 1 mL ACK lysis buffer and topped up to 25 mL, incubated for 5 min, brought up to 50 mL with PBS, and then pelleted. This red blood cell lysis step was repeated a second time.
PBMCs were isolated similarly to the T-cells, except that 90 mL of blood were used and after the removal of platelets the RosetteSep™ Human T-Cell Enrichment Cocktail was not added, instead an equal volume of PBS (90 mL) was added before overlaying on Histopaque. Centrifugation over Histopaque as above results in PBMC-containing buffy coat.
DCs (20000-30000/well) and 10 times as many T-cells were plated in each well in a total of 200 μL/well in DC medium. Co-cultures were incubated 24 h after which cells evaluated for DC maturation markers as described below.
Transwell assays were performed in 24-well plates. Co-cultures were plated out as described above with the final volume per well of 500 μL. For the transwell samples DCs were plated in the well and T-cells placed into the insert. The cells were then incubated 24 h and examined in the same manner as co-cultures without transwells.
DCs were grown as described until day 8 when there were split into two flasks, one with normal media and the other in serum free media. While no serum was present, X-VIVO™ 15 media contains growth factors which help maintain the health of the cultures. The co-culture experiment was performed as above in 48-well plates.
Co-cultures were examined using FACS analysis. After incubation, cells were washed in BD stain buffer (BSA) with Human Fc block (EMD Millipore) and incubated on ice for 30 min. Cells were then stained with fluorescently labeled anti-MHCII, anti-CD86, anti-CD83, and anti-CD40 primary antibodies (BD, 1:100 or 1:50 in BD stain buffer (BSA)) or with appropriate isotype controls (ice, dark, 40 min). Cells were then washed twice in BD stain buffer (BSA) and analyzed on an LSRII flow cytometer.

ZAP70 = experiment: TCR signaling, pZAP70 western blot in CD3/CD28 activated T-cells; conditions: CD3/CD28 bead activation 0-4 h, pZAP70 normalized to ZAP70
Protocol: Purified T-cells were plated in 6-well plates (2.5×10^6 cells/well, 2.5 mL T-cell medium) and were activated with CD3/CD28 beads (20 μL beads/well, Miltenyi Biotec, San Diego, Calif.) at 37 ° C. for 0-4 h. At the indicated time, samples were then harvested, washed in PBS, lysed with RIPA buffer (Thermo Scientific, containing DNAse and protease/phosphatase inhibitors), and snap frozen on dry ice followed by storage at −80 ° C. Cell lysates (˜3 μg/sample determined by BCA assay) were run on SDS-PAGE and examined by western blot on nitrocellulose membranes with anti-pZAP70 antibody (Cell Signaling Technologies). Briefly, blots were blocked for 1 h at room temperature in 5% milk in TBST (TBST from Cell Signling Technologies), rinsed with TBST and then incubated with primary antibody (anti-pZAP70 1:1000 in 5% BSA in TBST) at 4 ° C. overnight. Blots were washed 3× with TBST and probed with HRP-conjugated secondary antibodies for 1 hr at RT (1:2000 in 5% non-fat milk in TBST) followed by washing (3×TBST) and detection using Cell Signaling Elite ECL as per manufacturer instructions. Blots were scanned using an Amersham™ 600 imager (GE Healthcare). Once imaged, blots could be stripped and reprobed for additional markers using other primary antibodies. […]

SMAD2 = experiment: TGFβ signaling, pSMAD2 western blot in T-cells; conditions: TGFβ 5 ng/mL for 10 min after 6 h serum starvation
Protocol: Cells were plated in 6-well dishes (2.5×10^6 cells/well) with serum-free RPMI medium (1% PS, 2.5 mL) and after 6 h of serum starvation, cells were stimulated with TGFβ (5 ng/mL) for 10 min. The cells were harvested, washed twice in PBS, and snap frozen on dry ice followed by storage at −80 ° C. Cells were lysed with RIPA buffer (containing DNAse and protease/phosphatase inhibitors). As described previously, cell lysates were run on SDS-PAGE and examined by western blot on nitrocellulose membranes with anti-pSMAD2 and anti-actin antibodies.

For C[C@@H]1OC(O)[C@@H](F)[C@H](O)[C@@H]1O (stereo partly drawn) [2-deoxy-2-fluoro-L-fucose], the “DC activation and maturation markers, DCs alone” value (dendritic cells; DCs alone, with or without treatment) was “do not show changes in these markers”, the “DC activation and maturation markers MHCII, CD86, CD83 and CD40 (MFI vs control co-culture)” value (dendritic cells; DCs co-cultured 24 h with autologous T-cells expanded with 100-200 μM, serum-containing medium) was “increases in the DC activation and maturation markers MHCII, CD86, CD83 and CD40” and the “DC activation and maturation markers, transwell co-culture” value (dendritic cells; T-cells and DCs separated by transwell inserts) was “do not occur when transwell inserts are used”. The “DC activation and maturation markers, serum-free co-culture” value (dendritic cells; serum-free medium (no antigen)) was “does not provide the same increases”, the “Zap70 phosphorylation in treated T-cells compared to naive cells” value (ZAP70) was “significantly more phosphorylated and remains phosphorylated for a longer period of time” and the “SMAD2 phosphorylation following TGFβ stimulation vs control T-cells” value (SMAD2) was “reduced SMAD2 phosphorylation”.

Source: patent US20180353524A1, “CANCER TREATMENT USING 2-DEOXY-2-FLUORO-L-FUCOSE IN COMBINATION WITH A CHECKPOINT INHIBITOR” (SEATTLE GENETICS, INC., priority 2015, published 2018)
